According to PubChem BioAssay AID248 (DTP/NCI, 2004):
Inconclusive results and toxic doses are left out. Cut-off read from the data, not from the text of the source: active = T/C of 150% or more; inactive = T/C below 125%.

Tested on: L1210 leukemia ip in BDF1 mice, survival T/C
Assay: NCI In Vivo Anticancer Drug Screen. Data for tumor model L1210 Leukemia (intraperitoneal) in B6D2F1 (BDF1) mice
Conditions: endpoint: mean survival time, higher = longer survival
Outline: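 Ratio derived from survival: compound-dosed mice over vehicle-dosed mice, all bearing a transplantable tumor.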

[1] = dose: 100.0 mg/kg/injection, schedule: Q04DX002 (ip), vehicle: Klucel (hydroxypropylcellulose) (HPC)
[2] = dose: 200.0 mg/kg/injection, schedule: Q04DX002 (ip), vehicle: Klucel (hydroxypropylcellulose) (HPC)
[3] = dose: 100.0 mg/kg/injection, schedule: Q04DX003 (ip), vehicle: Klucel (hydroxypropylcellulose) (HPC)
[4] = dose: 200.0 mg/kg/injection, schedule: Q04DX003 (ip), vehicle: Klucel (hydroxypropylcellulose) (HPC)
[5] = dose: 400.0 mg/kg/injection, schedule: Q04DX003 (ip), vehicle: Klucel (hydroxypropylcellulose) (HPC)
[6] = dose: 100.0 mg/kg/injection, schedule: Q01DX009 (ip), vehicle: Klucel (hydroxypropylcellulose) (HPC)
[7] = dose: 200.0 mg/kg/injection, schedule: Q01DX009 (ip), vehicle: Klucel (hydroxypropylcellulose) (HPC)
[8] = dose: 400.0 mg/kg/injection, schedule: Q01DX009 (ip), vehicle: Klucel (hydroxypropylcellulose) (HPC)
[9] = dose: 100.0 mg/kg/injection, schedule: Q04DX003 (ip), vehicle: saline with Tween-80
[10] = dose: 200.0 mg/kg/injection, schedule: Q04DX003 (ip), vehicle: saline with Tween-80
[11] = dose: 400.0 mg/kg/injection, schedule: Q04DX003 (ip), vehicle: saline with Tween-80
[12] = dose: 33.0 mg/kg/injection, schedule: Q01DX009 (ip), vehicle: saline
[13] = dose: 50.0 mg/kg/injection, schedule: Q01DX009 (ip), vehicle: saline

Measured: T/C

Cc1ccc(S(=O)(=O)NCCN(C2CCCCC2)S(=O)(=O)c2ccc(C)cc2)cc1
inactive: dose: 15.0 mg/kg/injection, schedule: Q01DX001 (ip), vehicle: carboxymethylcellulose (CMC) 96 % of control | dose: 30.0 mg/kg/injection, schedule: Q01DX001 (ip), vehicle: carboxymethylcellulose (CMC) 96 % of control

Cc1cccc(OC(=O)Nc2ccccc2C)c1
inactive: [1] 103 % of control | [2] 118 % of control | dose: 400.0 mg/kg/injection, schedule: Q04DX002 (ip), vehicle: Klucel (hydroxypropylcellulose) (HPC) 100 % of control

O=C(O)CCc1nn(-c2ccccc2)c(=O)c2ccccc12
inactive: [1] 106 % of control | [2] 95 % of control

COc1ccc2c3c1OC1c4[nH]ncc4CC4C(C2)N(C)CCC314 (stereo not given)
inactive: [3] 104 % of control | [4] 93 % of control | [5] 106 % of control

COc1ccc(OC)c(NC(=O)c2ccc(F)cc2)c1
inactive: [6] 98 % of control | [7] 107 % of control | [8] 96 % of control

CCOC(=O)c1ccc(NC(=S)N2CCOCC2)cc1
inactive: [6] 93 % of control | [7] 101 % of control | [8] 93 % of control

CC1C(C)(C)P(=O)(NCCOP2(=O)C(C)(C)C(C)C2(C)C)C1(C)C (stereo not given)
inactive: dose: 100.0 mg/kg/injection, schedule: Q04DX003 (ip), vehicle: saline 100 % of control | dose: 200.0 mg/kg/injection, schedule: Q04DX003 (ip), vehicle: saline 92 % of control | dose: 400.0 mg/kg/injection, schedule: Q04DX003 (ip), vehicle: saline 96 % of control

Cc1cccc(NC(=O)Oc2ccc(Nc3ccccc3)cc2)c1
inactive: [6] 96 % of control | [7] 102 % of control | [8] 98 % of control

CCOC(=O)Nc1ccc(Cl)cc1Cl
inactive: [9] 97 % of control | [10] 105 % of control | [11] 87 % of control

O=C(c1ccccc1)c1ccc(N2CCOCC2)cc1
inactive: dose: 100.0 mg/kg/injection, schedule: Q01DX001 (ip), vehicle: other 96 % of control | dose: 200.0 mg/kg/injection, schedule: Q01DX001 (ip), vehicle: other 98 % of control | dose: 400.0 mg/kg/injection, schedule: Q01DX001 (ip), vehicle: other 90 % of control

NNC(=O)NO
inactive: [12] 114 % of control | dose: 75.0 mg/kg/injection, schedule: Q01DX001 (ip), vehicle: saline 101 % of control | dose: 150.0 mg/kg/injection, schedule: Q01DX001 (ip), vehicle: saline 103 % of control

Cc1cc(-c2ccccc2)c2ccc3c(-c4ccccc4)cc(C)nc3c2n1
inactive: dose: 0.5 mg/kg/injection, schedule: Q01DX001 (ip), vehicle: carboxymethylcellulose (CMC) 105 % of control | dose: 1.0 mg/kg/injection, schedule: Q01DX001 (ip), vehicle: carboxymethylcellulose (CMC) 112 % of control | dose: 2.0 mg/kg/injection, schedule: Q01DX001 (ip), vehicle: carboxymethylcellulose (CMC) 95 % of control | dose: 4.0 mg/kg/injection, schedule: Q01DX001 (ip), vehicle: carboxymethylcellulose (CMC) 97 % of control | dose: 8.0 mg/kg/injection, schedule: Q01DX001 (ip), vehicle: carboxymethylcellulose (CMC) 100 % of control | dose: 10.0 mg/kg/injection, schedule: Q01DX001 (ip), vehicle: carboxymethylcellulose (CMC) 100 % of control | dose: 20.0 mg/kg/injection, schedule: Q01DX001 (ip), vehicle: carboxymethylcellulose (CMC) 95 % of control | dose: 80.0 mg/kg/injection, schedule: Q01DX001 (ip), vehicle: carboxymethylcellulose (CMC) 95 % of control | dose: 100.0 mg/kg/injection, schedule: Q01DX001 (ip), vehicle: carboxymethylcellulose (CMC) 97 % of control

O=C1Cc2c(Cl)cccc2C(=S)N1
inactive: dose: 100.0 mg/kg/injection, schedule: Q01DX009 (ip), vehicle: saline sonified 95 % of control | [9] 95 % of control | dose: 200.0 mg/kg/injection, schedule: Q01DX009 (ip), vehicle: saline sonified 91 % of control | [10] 93 % of control | dose: 400.0 mg/kg/injection, schedule: Q01DX009 (ip), vehicle: saline sonified 98 % of control | [11] 92 % of control

O=C(O)CCC(=O)c1ccc(Cl)cc1
inactive: dose: 6.25 mg/kg/injection, schedule: Q01DX009 (ip), vehicle: saline with Tween-80 88 % of control | dose: 12.5 mg/kg/injection, schedule: Q01DX009 (ip), vehicle: saline with Tween-80 90 % of control | dose: 25.0 mg/kg/injection, schedule: Q01DX009 (ip), vehicle: saline with Tween-80 97 % of control

COC(=O)c1ccc(OC(=O)Nc2ccc(F)c([N+](=O)[O-])c2)cc1
inactive: [6] 101 % of control | [7] 104 % of control

CCc1ccc(C2=C(O)C(=O)C(c3ccccc3)=C(O)C2=O)cc1
inactive: dose: 12.5 mg/kg/injection, schedule: Q01DX009 (ip), vehicle: acetone 95 % of control | dose: 25.0 mg/kg/injection, schedule: Q01DX009 (ip), vehicle: acetone 90 % of control | dose: 33.0 mg/kg/injection, schedule: Q01DX009 (ip), vehicle: acetone 96 % of control | [12] 96 % of control | dose: 50.0 mg/kg/injection, schedule: Q01DX009 (ip), vehicle: acetone 101 % of control | [13] 97 % of control | dose: 75.0 mg/kg/injection, schedule: Q01DX009 (ip), vehicle: acetone 118 % of control

C=CCO[Si](C=C)(OCC=C)OCC=C
inactive: dose: 75.0 mg/kg/injection, schedule: Q01DX001 (ip), vehicle: other 116 % of control | dose: 150.0 mg/kg/injection, schedule: Q01DX001 (ip), vehicle: other 95 % of control | dose: 300.0 mg/kg/injection, schedule: Q01DX001 (ip), vehicle: other 94 % of control

Cc1ccc([N+](=O)[O-])c2ccccc12
inactive: dose: 100.0 mg/kg/injection, schedule: Q01DX001 (ip), vehicle: saline with Tween-80 103 % of control | dose: 200.0 mg/kg/injection, schedule: Q01DX001 (ip), vehicle: saline with Tween-80 97 % of control | dose: 400.0 mg/kg/injection, schedule: Q01DX001 (ip), vehicle: saline with Tween-80 97 % of control

CCC(C(O)c1ccccc1)C(O)(C(F)(F)F)C(F)(F)F (stereo not given)
inactive: dose: 75.0 mg/kg/injection, schedule: Q01DX009 (ip), vehicle: saline with Tween-80 100 % of control | dose: 150.0 mg/kg/injection, schedule: Q01DX009 (ip), vehicle: saline with Tween-80 106 % of control | dose: 300.0 mg/kg/injection, schedule: Q01DX009 (ip), vehicle: saline with Tween-80 103 % of control

Cc1cc(C)c2c(SC(C)C)nc(N)nc2n1
inactive: dose: 100.0 mg/kg/injection, schedule: Q01DX Z (ip), vehicle: methylcellulose (MC) 95 % of control | dose: 200.0 mg/kg/injection, schedule: Q01DX Z (ip), vehicle: methylcellulose (MC) 97 % of control

CS(=O)(=O)Nc1nc2ccccc2[nH]1
inactive: [13] 96 % of control | dose: 100.0 mg/kg/injection, schedule: Q01DX009 (ip), vehicle: saline 93 % of control | dose: 200.0 mg/kg/injection, schedule: Q01DX009 (ip), vehicle: saline 86 % of control

Cc1cc(O)c(C(C)C)cc1NC(=O)C(Cl)Cl
inactive: [3] 98 % of control | [4] 101 % of control | [5] 107 % of control

O=C(O)c1cccc(Cl)c1
inactive: [6] 100 % of control | [7] 100 % of control | [8] 86 % of control

O=S1(=O)CCCC1C(Cl)c1ccccc1 (stereo not given)
inactive: dose: 50.0 mg/kg/injection, schedule: Q01DX001 (ip), vehicle: Klucel (hydroxypropylcellulose) (HPC) 92 % of control | dose: 100.0 mg/kg/injection, schedule: Q01DX001 (ip), vehicle: Klucel (hydroxypropylcellulose) (HPC) 97 % of control
